Measurements as given in US20020197689A1, “Insecticidal peptides and methods for use of same” (priority 2000, published 2002).
“Also recorded” adds a separate entry of the source. Where no end group is shown, it is not given here.

Legend:
[1] = tested on: Spodoptera litura early third-instar larvae; assay: Microinjection bioassay of insecticidal activity in Spodoptera litura third-instar larvae; assay type: in vivo; details: for LD50: S. litura larvae, 50% mortality at 24 hours post-injection; for insecticidal activity (in words): S. litura third instar larvae
Procedure: Due to the small amounts of material involved, bioassays are realized on a microscale, using a microinjection technique as described below. Drosophila melanogaster was used first as an insect model since it is amenable to injection of volumes of 50 nl volumes or less, and is very sensitive to spider toxins. In order to confirm activity against an economically important crop pest, Spodoptera litura early third-instar larvae were also used. S. litura is a highly polyphagous species, and is considered an international pest on cotton, tobacco, tomato, cabbage, cauliflower, peanuts, beans and other plants. However, S. litura is more resistant to toxins than D. melanogaster, and it requires injection of 10 to 100-fold higher doses. Application of the microinjection technique to S. litura larvae enabled its use as a test insect while lowering the amounts of sample used in the bioassays. In particular, early 3rd instar larvae (3 to 5 mg) can be injected successfully with volumes up to 800 nl of toxin composition. Lethal and paralytic activity of may be evaluated using D. melanogaster adult flies (˜0.7 mg/fly) and S. litura early third-instar larvae (5-8 mg/larva). See Escoubas, P., Pahna, H. F., Nakajima, T. (1995), “A Microinjection technique using Drosophila melanogaster for bioassay-guided isolation of neurotoxins in arthropod venoms”, Toxicon, 33(12), 1549-1555.
To perform the bioassay of SV toxin peptides, SV toxin peptides are injected into the dorsolateral area of Drosophila melanogaster adult flies or into the pronotum of 3rd instar Spodoptera litura larvae using a glass micropipette mounted on an automatic microinjector (A203XVY Nanoliter injector, WPI Precision Instruments, Sarasota, Fla., USA). Flies and larvae are examined five seconds after injection for evidence of involuntary contraction of body segments.

mice = assay: Intracerebroventricular injection in mice; assay type: in vivo, mice (C57B16); details: ICV injection, 2 micrograms per mouse
Procedure: Intracerebroventricular injections (0.1 111 crude venom-equivalent in 5 μl of 20 mg/ml BSA and 9 mg/ml NaCl) of each toxin were also performed on 20 g male mice (C57B16).

With “PaspI (GCLGEGEKCADWSGPSCCDGFYCSCRSMPYCRCRNNS-NH2; disulfide (positions not given here); also: four disulfide bridges, pairing not given here)” the LD50 ([1]; injection) was “not significantly different from the LD50 measured for toxin AaIT”, the LD50 ([1]; injection, listed as PaspI-NH2) was 9.7+4.1 μg/g and the “insecticidal activity (in words)” value ([1]; injection) was “most potent toxin towards S. litura; also recorded: greatest degree of insecticidal activity”.

In the case of “PaspII (ACVGDGQRCASWSGPYCCDGYYCSCRSMPYCRCRNNS; disulfide (positions not given here); also: four disulfide bridges, pairing not given here)”, the “insecticidal activity (in words)” value ([1]; injection) was “insecticidal activity” and the “toxic effect on mice” value (mice) was “did have a toxic effect”.

In the case of “PaspIII (ADCLNEGDWCADWSGPSCCGEMWCSCPGFGKCRCKK; disulfide (positions not given here); also: four disulfide bridges, pairing not given here)”, the “insecticidal activity (in words)” value ([1]; injection) was “insecticidal activity”.

With “PaspIV (ACATKNQRCASWAGPYCCDGFYCSCRSYPGCMCRPNS; disulfide (positions not given here); also: four disulfide bridges, pairing not given here)” the “insecticidal activity (in words)” value ([1]; injection) was “insecticidal activity; also recorded: putatively least potent”.

With “XacI (ECIGGGGGCSVFSGPSCCGGTCKCKFVLIFPKGCHCT)” the paralysis of larvae ([1]; isolated peptide, injection, assay procedure of Example 3) was “instantaneous paralysis” and the “time to some signs of recovery of treated larvae post-injection” value ([1]; possibly low injection dose, below the LD50) was 8 to 12 h.
